Earlier results as cited in patent publication US11141456B2, “Therapeutic compositions including frataxin, lactoferrin, and mitochondrial energy generating enzymes, and uses thereof” (Stealth BioTherapeutics Corp, priority 2014, dated 2021).

Tested on: several mammalian cell types
Details: energy-independent manner; cited from earlier work

## 2′,6′-Dmt-D-Arg-Phe-Lys-NH2
  penetration of the plasma membrane: readily penetrates the plasma membrane
